Our source for the AC50 values is ChEMBL document CHEMBL5291721, “A preclinical secondary pharmacology resource illuminates target-adverse drug reaction associations of marketed drugs” (Nat Commun, 2023).

A value given as a limit tells only on which side of the number the result lay.

Some targets named below: Motilin receptor (Homo sapiens, UniProt O43193); Melanocortin receptor 3 (Homo sapiens, UniProt P41968); Histamine H1 receptor (Homo sapiens, UniProt P35367).
The target in assay [1] is Kappa-type opioid receptor (Homo sapiens, UniProt P41145).
Chain of Kappa-type opioid receptor (P41145 whole entry): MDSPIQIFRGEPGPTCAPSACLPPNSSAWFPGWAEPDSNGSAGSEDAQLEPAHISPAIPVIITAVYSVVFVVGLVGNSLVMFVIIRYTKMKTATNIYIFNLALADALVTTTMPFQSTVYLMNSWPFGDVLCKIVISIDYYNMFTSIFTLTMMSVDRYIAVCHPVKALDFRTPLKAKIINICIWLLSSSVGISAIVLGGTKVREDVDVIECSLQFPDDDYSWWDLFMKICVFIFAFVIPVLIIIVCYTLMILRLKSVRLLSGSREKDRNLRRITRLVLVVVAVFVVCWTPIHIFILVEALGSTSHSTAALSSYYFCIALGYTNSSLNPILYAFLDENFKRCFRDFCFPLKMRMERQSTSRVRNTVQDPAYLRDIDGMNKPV
The target of assay [2] is T1, 5-hydroxytryptamine receptor 2C (Homo sapiens, UniProt P28335).
T1 sequence (P28335 whole entry): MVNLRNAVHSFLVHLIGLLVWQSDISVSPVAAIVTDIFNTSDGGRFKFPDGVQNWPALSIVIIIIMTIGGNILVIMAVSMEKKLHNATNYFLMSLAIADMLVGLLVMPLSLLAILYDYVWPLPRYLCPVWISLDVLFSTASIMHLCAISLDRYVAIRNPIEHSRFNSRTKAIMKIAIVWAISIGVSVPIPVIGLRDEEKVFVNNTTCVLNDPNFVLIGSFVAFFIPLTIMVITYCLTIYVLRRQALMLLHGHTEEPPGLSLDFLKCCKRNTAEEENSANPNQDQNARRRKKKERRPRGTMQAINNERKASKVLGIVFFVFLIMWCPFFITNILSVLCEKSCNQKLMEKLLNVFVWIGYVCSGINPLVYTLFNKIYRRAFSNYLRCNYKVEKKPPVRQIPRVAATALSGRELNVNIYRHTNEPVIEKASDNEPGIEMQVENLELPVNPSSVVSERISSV

The target in assay [3] is T2, Equilibrative nucleoside transporter 1 (Homo sapiens, UniProt Q99808).
T2 sequence (Q99808 whole entry): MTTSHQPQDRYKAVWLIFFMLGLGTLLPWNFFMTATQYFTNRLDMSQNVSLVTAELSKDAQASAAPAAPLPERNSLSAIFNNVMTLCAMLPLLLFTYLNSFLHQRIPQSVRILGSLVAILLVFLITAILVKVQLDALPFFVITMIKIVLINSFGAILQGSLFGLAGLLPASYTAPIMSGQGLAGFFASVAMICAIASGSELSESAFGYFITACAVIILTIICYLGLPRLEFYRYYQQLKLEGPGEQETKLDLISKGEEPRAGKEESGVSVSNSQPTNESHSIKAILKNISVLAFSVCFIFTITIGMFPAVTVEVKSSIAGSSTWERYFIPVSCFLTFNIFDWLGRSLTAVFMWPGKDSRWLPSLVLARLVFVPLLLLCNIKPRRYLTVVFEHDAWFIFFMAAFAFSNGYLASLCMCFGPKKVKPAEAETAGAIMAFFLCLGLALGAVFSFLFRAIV

Assay [4] has as its target Sodium-dependent serotonin transporter (Homo sapiens, UniProt P31645).
Assay [5] has as its target T3, 5-hydroxytryptamine receptor 1A (Homo sapiens, UniProt P08908).
T3 sequence (P08908 whole entry): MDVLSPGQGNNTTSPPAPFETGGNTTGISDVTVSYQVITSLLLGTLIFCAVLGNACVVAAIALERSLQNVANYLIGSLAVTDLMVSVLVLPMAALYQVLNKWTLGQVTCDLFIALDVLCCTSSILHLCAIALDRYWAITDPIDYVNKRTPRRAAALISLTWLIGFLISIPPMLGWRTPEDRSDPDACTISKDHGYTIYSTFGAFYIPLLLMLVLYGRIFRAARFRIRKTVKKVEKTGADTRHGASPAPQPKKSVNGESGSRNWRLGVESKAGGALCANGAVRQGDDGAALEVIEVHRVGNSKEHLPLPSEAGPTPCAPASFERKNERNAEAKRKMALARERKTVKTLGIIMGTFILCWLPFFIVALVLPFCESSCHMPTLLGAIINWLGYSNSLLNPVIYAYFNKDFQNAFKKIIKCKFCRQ
It is filed as functional, cell-based.

Assay [6] concerns the target T4, Alpha-1A adrenergic receptor (Homo sapiens, UniProt P35348).
T4 sequence (P35348 whole entry): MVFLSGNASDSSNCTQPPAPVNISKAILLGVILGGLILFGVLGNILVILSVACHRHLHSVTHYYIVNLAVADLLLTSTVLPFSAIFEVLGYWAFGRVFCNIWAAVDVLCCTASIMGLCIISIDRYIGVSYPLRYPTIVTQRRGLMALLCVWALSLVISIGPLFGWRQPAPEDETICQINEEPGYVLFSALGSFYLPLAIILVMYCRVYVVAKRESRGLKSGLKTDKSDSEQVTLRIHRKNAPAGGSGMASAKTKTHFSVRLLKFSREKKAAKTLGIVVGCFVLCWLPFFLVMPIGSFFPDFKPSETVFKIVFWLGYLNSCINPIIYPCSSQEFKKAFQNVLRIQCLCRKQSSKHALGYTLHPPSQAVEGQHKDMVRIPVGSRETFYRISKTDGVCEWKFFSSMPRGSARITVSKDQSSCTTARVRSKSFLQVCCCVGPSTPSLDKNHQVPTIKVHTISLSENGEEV
Type of assay: functional, cell-based.

Assay [7] deals with T5, Alpha-2B adrenergic receptor (Homo sapiens, UniProt P18089).
T5 sequence (P18089 whole entry): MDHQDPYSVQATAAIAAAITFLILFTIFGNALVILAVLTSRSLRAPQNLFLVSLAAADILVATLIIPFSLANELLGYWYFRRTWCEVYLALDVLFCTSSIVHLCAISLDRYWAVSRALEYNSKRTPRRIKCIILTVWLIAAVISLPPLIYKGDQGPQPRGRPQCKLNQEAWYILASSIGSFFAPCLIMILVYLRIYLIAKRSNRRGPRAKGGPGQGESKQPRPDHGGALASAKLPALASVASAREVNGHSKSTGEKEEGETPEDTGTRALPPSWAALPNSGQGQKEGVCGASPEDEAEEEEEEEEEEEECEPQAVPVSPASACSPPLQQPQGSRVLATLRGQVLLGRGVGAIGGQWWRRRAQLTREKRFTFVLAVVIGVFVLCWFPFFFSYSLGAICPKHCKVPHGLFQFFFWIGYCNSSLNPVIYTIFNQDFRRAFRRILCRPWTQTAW

For assay [8], the target named is cGMP-inhibited 3',5'-cyclic phosphodiesterase 3A (Homo sapiens, UniProt Q14432). It is filed as functional.
Chain of cGMP-inhibited 3',5'-cyclic phosphodiesterase 3A (Q14432 whole entry): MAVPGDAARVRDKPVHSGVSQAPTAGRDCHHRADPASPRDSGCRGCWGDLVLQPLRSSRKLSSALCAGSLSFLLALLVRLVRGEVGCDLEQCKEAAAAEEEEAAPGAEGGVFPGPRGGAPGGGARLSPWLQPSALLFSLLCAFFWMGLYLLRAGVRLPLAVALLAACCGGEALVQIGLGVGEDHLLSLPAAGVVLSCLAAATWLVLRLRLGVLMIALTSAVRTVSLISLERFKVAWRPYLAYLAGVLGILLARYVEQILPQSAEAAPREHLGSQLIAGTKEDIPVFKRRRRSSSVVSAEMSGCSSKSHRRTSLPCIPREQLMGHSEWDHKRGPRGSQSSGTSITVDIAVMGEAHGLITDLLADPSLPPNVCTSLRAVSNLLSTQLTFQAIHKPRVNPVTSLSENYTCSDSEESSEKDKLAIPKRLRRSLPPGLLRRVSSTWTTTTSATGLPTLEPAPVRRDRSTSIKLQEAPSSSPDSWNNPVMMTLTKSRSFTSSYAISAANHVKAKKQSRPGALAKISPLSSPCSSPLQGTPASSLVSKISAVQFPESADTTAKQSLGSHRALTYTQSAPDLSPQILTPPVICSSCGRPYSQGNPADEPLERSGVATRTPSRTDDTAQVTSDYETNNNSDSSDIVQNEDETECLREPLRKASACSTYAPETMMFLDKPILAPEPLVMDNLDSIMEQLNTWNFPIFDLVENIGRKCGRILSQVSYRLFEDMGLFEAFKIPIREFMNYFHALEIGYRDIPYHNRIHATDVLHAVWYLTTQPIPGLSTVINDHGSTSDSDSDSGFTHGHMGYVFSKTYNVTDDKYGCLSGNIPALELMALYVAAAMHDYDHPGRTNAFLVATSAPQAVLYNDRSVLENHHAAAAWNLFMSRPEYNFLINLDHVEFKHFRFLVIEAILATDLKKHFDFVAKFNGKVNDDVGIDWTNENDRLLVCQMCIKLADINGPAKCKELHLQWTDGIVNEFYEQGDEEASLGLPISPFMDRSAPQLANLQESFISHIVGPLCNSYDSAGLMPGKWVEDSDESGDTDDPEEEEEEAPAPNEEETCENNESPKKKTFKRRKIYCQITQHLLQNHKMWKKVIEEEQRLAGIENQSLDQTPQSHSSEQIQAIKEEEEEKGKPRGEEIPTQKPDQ
Assay [9] addresses Glutamate receptor ionotropic, NMDA 1 (Rattus norvegicus, UniProt P35439).
For assay [10], the target named is Gamma-aminobutyric acid receptor subunit alpha-1 (Rattus norvegicus, UniProt P62813). It is filed as functional.
Chain of Gamma-aminobutyric acid receptor subunit alpha-1 (P62813 whole entry): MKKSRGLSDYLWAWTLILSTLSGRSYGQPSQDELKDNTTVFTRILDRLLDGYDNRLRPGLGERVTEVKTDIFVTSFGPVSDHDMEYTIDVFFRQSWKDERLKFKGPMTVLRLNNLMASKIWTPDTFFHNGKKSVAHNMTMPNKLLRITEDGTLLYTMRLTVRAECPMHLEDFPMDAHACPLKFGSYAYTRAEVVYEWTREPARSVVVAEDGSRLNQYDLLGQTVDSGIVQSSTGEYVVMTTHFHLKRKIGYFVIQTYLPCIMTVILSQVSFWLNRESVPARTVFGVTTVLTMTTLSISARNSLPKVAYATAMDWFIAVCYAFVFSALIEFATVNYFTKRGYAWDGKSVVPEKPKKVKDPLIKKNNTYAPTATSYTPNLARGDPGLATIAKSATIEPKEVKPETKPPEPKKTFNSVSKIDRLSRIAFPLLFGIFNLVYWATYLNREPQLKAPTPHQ
Note: assay procedure not described here.

Chain of Sodium-dependent serotonin transporter (P31645 whole entry): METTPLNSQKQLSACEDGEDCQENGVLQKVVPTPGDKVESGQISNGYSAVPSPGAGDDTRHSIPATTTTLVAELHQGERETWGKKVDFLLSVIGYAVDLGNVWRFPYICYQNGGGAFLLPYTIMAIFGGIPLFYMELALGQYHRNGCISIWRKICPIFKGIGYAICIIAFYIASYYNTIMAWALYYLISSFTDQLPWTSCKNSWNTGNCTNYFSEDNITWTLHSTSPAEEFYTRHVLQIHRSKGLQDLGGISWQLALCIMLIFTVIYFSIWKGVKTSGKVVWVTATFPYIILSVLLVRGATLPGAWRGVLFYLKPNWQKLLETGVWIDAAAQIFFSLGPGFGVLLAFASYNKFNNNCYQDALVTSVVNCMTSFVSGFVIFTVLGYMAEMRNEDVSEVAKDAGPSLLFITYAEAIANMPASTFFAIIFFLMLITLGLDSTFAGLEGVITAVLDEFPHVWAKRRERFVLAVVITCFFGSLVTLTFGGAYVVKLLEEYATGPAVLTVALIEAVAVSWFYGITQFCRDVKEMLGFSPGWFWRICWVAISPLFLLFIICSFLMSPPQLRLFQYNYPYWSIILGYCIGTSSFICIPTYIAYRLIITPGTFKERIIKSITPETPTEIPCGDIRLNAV
Chain of Melanocortin receptor 3 (P41968 whole entry): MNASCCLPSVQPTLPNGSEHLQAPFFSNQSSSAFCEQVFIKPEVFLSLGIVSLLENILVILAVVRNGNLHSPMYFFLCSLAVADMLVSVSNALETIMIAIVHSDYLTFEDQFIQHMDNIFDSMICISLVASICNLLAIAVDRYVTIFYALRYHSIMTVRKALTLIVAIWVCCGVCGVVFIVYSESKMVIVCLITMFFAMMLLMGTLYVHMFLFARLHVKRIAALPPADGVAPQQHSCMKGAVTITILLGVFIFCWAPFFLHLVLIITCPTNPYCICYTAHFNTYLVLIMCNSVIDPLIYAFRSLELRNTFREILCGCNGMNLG
Chain of Motilin receptor (O43193 whole entry): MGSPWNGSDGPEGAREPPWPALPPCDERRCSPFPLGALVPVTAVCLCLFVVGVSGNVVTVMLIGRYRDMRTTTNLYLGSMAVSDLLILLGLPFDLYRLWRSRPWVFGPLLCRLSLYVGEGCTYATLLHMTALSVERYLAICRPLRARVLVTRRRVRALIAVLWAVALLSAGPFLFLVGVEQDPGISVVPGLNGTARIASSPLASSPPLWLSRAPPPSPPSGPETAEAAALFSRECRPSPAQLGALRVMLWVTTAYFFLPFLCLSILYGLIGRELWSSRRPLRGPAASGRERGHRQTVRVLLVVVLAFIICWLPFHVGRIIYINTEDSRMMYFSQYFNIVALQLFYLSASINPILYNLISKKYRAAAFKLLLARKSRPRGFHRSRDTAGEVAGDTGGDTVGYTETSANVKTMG
Chain of Histamine H1 receptor (P35367 whole entry): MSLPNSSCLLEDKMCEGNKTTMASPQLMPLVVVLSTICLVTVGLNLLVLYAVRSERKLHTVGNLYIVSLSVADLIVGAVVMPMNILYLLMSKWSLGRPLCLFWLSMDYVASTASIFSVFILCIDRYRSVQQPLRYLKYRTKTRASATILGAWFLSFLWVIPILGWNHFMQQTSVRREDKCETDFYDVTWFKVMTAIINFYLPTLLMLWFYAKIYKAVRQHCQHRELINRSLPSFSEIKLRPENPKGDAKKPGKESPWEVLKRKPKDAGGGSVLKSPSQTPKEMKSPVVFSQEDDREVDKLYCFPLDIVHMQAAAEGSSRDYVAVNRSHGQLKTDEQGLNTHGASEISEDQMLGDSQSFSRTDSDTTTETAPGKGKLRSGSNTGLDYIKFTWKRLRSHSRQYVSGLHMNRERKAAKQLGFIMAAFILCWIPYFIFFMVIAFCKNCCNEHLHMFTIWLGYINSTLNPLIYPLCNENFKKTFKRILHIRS

For `COc1ccccc1OCCNCC(O)c1ccc(C)c(S(N)(=O)=O)c1` (stereo not given) [AMOSULALOL], the AC50 (as a rule, the midpoint of the concentration-response curve, whichever way the signal moves) is above 30 µM in [1]; above 30 µM on Motilin receptor; above 30 µM in assay [2]; above 30 µM in [3]; 29 µM in assay [4]; above 30 µM at Melanocortin receptor 3. Besides, the AC50 in assay [5] was 0.16 µM; at Histamine H1 receptor, 16 µM; in assay [6], 0.32 µM; in assay [7], 6.9 µM; in assay [8], above 10 µM; in assay [9] it was above 30 µM. The compound also registered a half-maximal activity concentration (AC50) in assay [10] above 30 µM.
Turning to `Clc1ccc(CCCOCCCN2CCCCC2)cc1` [PITOLISANT], the AC50 in [1] is above 30 µM; at Motilin receptor it was above 30 µM; in [2] it was above 30 µM; in assay [4] it was 9.9 µM; at Melanocortin receptor 3, above 30 µM; in assay [5], above 30 µM. In addition, the concentration at half-maximal activity (AC50) on Histamine H1 receptor is 11 µM; in assay [6], above 30 µM; in assay [7], above 30 µM; in assay [8], above 30 µM; in [9] it was above 30 µM; in assay [10] it was above 30 µM.
As to `CCC(C(=O)O)c1ccc(N2Cc3ccccc3C2=O)cc1` (stereo not given) [INDOBUFEN], the AC50 (in assay [1]; on Motilin receptor; in assay [2]; in assay [3]; in assay [4]; at Melanocortin receptor 3) was above 30 µM in each case. Further, the AC50 in assay [5] was 1.9 µM; on Histamine H1 receptor it was above 30 µM; in assay [6] it was above 30 µM; in [7] it was above 30 µM; in assay [8], above 30 µM; in [9], above 30 µM. The AC50 in assay [10] was above 30 µM.
As for `CCC1(CC)C(=O)NCC(C)C1=O` (stereo not given) [METHYPRYLON], the AC50 (in assay [1]; on Motilin receptor; in assay [2]; in assay [3]; in assay [4]; on Melanocortin receptor 3) was above 30 µM throughout. The concentration at half-maximal activity (AC50) (in assay [5]; at Histamine H1 receptor; in [6]; in assay [7]; in [8]; in [9]) was above 30 µM throughout. The AC50 in [10] is above 30 µM.
Turning to `CCCc1nc(C(C)(C)O)c(C(=O)OCc2oc(=O)oc2C)n1Cc1ccc(-c2ccccc2-c2nnn[nH]2)cc1` [OLMESARTAN MEDOXOMIL], the AC50 in assay [1] is above 10 µM; on Motilin receptor it was above 10 µM; in assay [2], above 10 µM; in assay [3] it was above 50 µM; in assay [4], above 30 µM; on Melanocortin receptor 3, above 50 µM. The half-maximal activity concentration (AC50) in [5] is above 10 µM; at Histamine H1 receptor it was above 10 µM; in [6], above 30 µM; in assay [7] it was above 10 µM; in assay [8], 11 µM; in assay [9], above 10 µM. Further, the concentration at half-maximal activity (AC50) in assay [10] was above 10 µM.
As for `COc1ccc(CCN(C)CCCC(C#N)(c2cc(OC)c(OC)c(OC)c2)C(C)C)cc1OC` (stereo not given) [GALLOPAMIL], the AC50 in assay [1] is 2.5 µM; at Motilin receptor, above 30 µM; in [2], 5 µM; in assay [4] it was 3 µM; on Melanocortin receptor 3 it was above 30 µM; in [5], 11 µM. Besides, the AC50 (on Histamine H1 receptor; in [6]; in assay [7]; in [8]; in [9]; in assay [10]) was above 30 µM in each case.
For the compound `CC1(C)O[C@@H]2C[C@H]3[C@@H]4CCC5=CC(=O)C=C[C@]5(C)[C@H]4[C@@H](O)C[C@]3(C)[C@]2(C(=O)CO)O1` [DESONIDE], the AC50 in assay [1] is above 10 µM; on Motilin receptor, above 10 µM; in assay [2] it was above 30 µM; in assay [3] it was above 10 µM; in assay [4], above 10 µM; on Melanocortin receptor 3 it was above 10 µM. Besides, the half-maximal activity concentration (AC50) in [5] was above 10 µM; on Histamine H1 receptor it was above 10 µM; in [6], above 30 µM; in assay [7], above 10 µM; in [8] it was above 30 µM; in [9], above 10 µM. In addition, in assay [10], the AC50 is above 10 µM.
For `Cc1ccc(-n2nccn2)c(C(=O)N2CCN(c3nc4cc(Cl)ccc4o3)CC[C@H]2C)c1` [SUVOREXANT], the AC50 (in assay [1]; at Motilin receptor; in assay [2]; in assay [4]; on Melanocortin receptor 3; in assay [5]) was above 30 µM each time. Further, the concentration at half-maximal activity (AC50) on Histamine H1 receptor was above 30 µM; in assay [6] it was above 30 µM; in assay [7], 26 µM; in assay [8], above 30 µM; in assay [9], above 30 µM; in assay [10] it was above 30 µM.
Turning to `COc1cc2c(N)nc(N3CCN(C(=O)OCC(C)(C)O)CC3)nc2c(OC)c1OC` [TRIMAZOSIN], the AC50 in assay [1] is above 30 µM; on Motilin receptor, above 30 µM; in assay [2], above 30 µM; in assay [4], above 30 µM; on Melanocortin receptor 3 it was above 30 µM; in assay [5] it was 22 µM. The AC50 (at Histamine H1 receptor; in assay [6]; in [7]; in assay [8]; in [9]; in assay [10]) was above 30 µM throughout.
For `CCCC(C)C1(CC)C(=O)NC(=O)NC1=O` (stereo not given) [PENTOBARBITAL], the AC50 in [1] was above 10 µM; at Motilin receptor, above 10 µM; in [2], above 30 µM; in assay [3], above 10 µM; in assay [4], above 10 µM; on Melanocortin receptor 3, above 10 µM. Moreover, the concentration at half-maximal activity (AC50) in [5] is above 10 µM; at Histamine H1 receptor, above 30 µM; in assay [6], above 30 µM; in [7] it was above 30 µM; in assay [8] it was above 30 µM; in assay [9], above 10 µM.
